SMILES strings stand for the structures.

Tested on in the first series: not listed separately
Nature of the series: Total serum fatty acid concentrations in dolphins fed modified diet. The format is in vivo, bottlenose dolphin (Tursiops truncatus). To be noted: bottlenose dolphin (Tursiops truncatus), in vivo; Case dolphins fed modified diet (n = 20), Month 0 (baseline), 2 h postprandial. Here is the method: CV % were typically under 10%.
(§1) Determination of serum fatty acid concentrations, including a variety of fatty acid classes, were performed by Metabolon, Inc. (Durham, N.C.) using complex lipidomics. Lipids were extracted from samples using dichloromethane and methanol in a modified Bligh-Dyer extraction in the presence of internal standards with the lower, organic, phase being used for analysis. The extracts were concentrated under nitrogen and reconstituted in 0.25 mL of dichloromethane:methanol (50:50) containing 10 mM ammonium acetate. The extracts were placed in vials for infusion-MS analyses, performed on a SelexION equipped Sciex 5500 QTRAP using both positive and negative mode electrospray. Each sample was subjected to 2 analyses, with IMS-MS conditions optimized for lipid classes monitored in each analysis. The 5500 QTRAP was operated in MRM mode to monitor the transitions for over 1,100 lipids from up to 14 lipid classes. Individual lipid species were quantified based on the ratio of signal intensity for target compounds to the signal intensity for an assigned internal standard of known concentration. Lipid class concentrations were calculated from the sum of all molecular species within a class, and fatty acid compositions were determined by calculating the proportion of individual fatty acids within each class. […]
`CCCCCCCCCCCCCCCCCCCCCC(=O)O` [C22:0, behenic acid] returned a concentration at 0 month of 23 ± 4 µM.

`CCCCCCCCCCCCCCCC(=O)O` [C16:0, palmitic acid] had a concentration at 0 month of 1440 ± 194 µM.

Staying with this series, now noted: bottlenose dolphin (Tursiops truncatus), in vivo; Case dolphins fed modified diet (n = 20), Month 1, 2 h postprandial.
In the case of `CCCCCCCCCCCCCCCCCCCCCC(=O)O` [C22:0, behenic acid], the concentration at 1 month is 21 ± 3 µM.

Regarding `CCCCCCCCCCCCCCCC(=O)O` [C16:0, palmitic acid], the concentration at 1 month is 1370 ± 199 µM.

Staying with this series, now noted: bottlenose dolphin (Tursiops truncatus), in vivo; Case dolphins fed modified diet (n = 20), Month 3, 2 h postprandial.
For the compound `CCCCCCCCCCCCCCCCCCCCCC(=O)O` [C22:0, behenic acid], the concentration at 3 month is 23 ± 3 µM.

With `CCCCCCCCCCCCCCCC(=O)O` [C16:0, palmitic acid], the concentration at 3 month was 1500 ± 221 µM.

The series is the same for the next values; noted with them: bottlenose dolphin (Tursiops truncatus), in vivo; Case dolphins fed modified diet (n = 20), Month 6, 2 h postprandial.
With `CCCCCCCCCCCCCCCCCCCCCC(=O)O` [C22:0, behenic acid], the concentration at 6 month was 24 ± 5 µM.

With `CCCCCCCCCCCCCCCC(=O)O` [C16:0, palmitic acid], the concentration at 6 month was 1450 ± 155 µM.

The same series, now with this note: bottlenose dolphin (Tursiops truncatus), serum, oral; Case dolphins fed modified diet (n = 20), Month 0 (baseline), 2 h postprandial.
Consider `CCCCCCCCCCCCCCCCC(=O)O` [C17:0, heptadecanoic acid], for which the concentration at 0 month came to 51 ± 9 µM.

`CCCCCCCCCCCCCCC(=O)O` [C15:0, pentadecanoic acid] returned a concentration at 0 month of 35 ± 9 µM.

In the case of `CCCCCCCCCCCCCC(=O)O` [C14:0, myristic acid], the concentration at 0 month stood at 243 ± 63 µM.

Still in this series, the particulars now being: bottlenose dolphin (Tursiops truncatus), serum, oral; Case dolphins fed modified diet (n = 20), Month 1, 2 h postprandial.
Compound `CCCCCCCCCCCCCCCCC(=O)O` [C17:0, heptadecanoic acid] showed a concentration at 1 month of 82 ± 21 µM.

Consider `CCCCCCCCCCCCCCC(=O)O` [C15:0, pentadecanoic acid], for which the concentration at 1 month amounted to 94 ± 33 µM.

Consider `CCCCCCCCCCCCCC(=O)O` [C14:0, myristic acid], for which the concentration at 1 month is 195 ± 50 µM.

Still in this series, the particulars now being: bottlenose dolphin (Tursiops truncatus), serum, oral; Case dolphins fed modified diet (n = 20), Month 3, 2 h postprandial.
Take `CCCCCCCCCCCCCCCCC(=O)O` [C17:0, heptadecanoic acid]: the concentration at 3 month stood at 93 ± 23 µM.

With `CCCCCCCCCCCCCCC(=O)O` [C15:0, pentadecanoic acid], the concentration at 3 month stood at 111 ± 29 µM.

`CCCCCCCCCCCCCC(=O)O` [C14:0, myristic acid] showed a concentration at 3 month of 226 ± 46 µM.

The same series, now with this note: bottlenose dolphin (Tursiops truncatus), serum, oral; Case dolphins fed modified diet (n = 20), Month 6, 2 h postprandial.
`CCCCCCCCCCCCCCCCC(=O)O` [C17:0, heptadecanoic acid] yielded a concentration at 6 month of 85 ± 15 µM.

Turning to `CCCCCCCCCCCCCCC(=O)O` [C15:0, pentadecanoic acid], the concentration at 6 month stood at 101 ± 29 µM.

`CCCCCCCCCCCCCC(=O)O` [C14:0, myristic acid]: the concentration at 6 month is 206 ± 33 µM.

The series is the same for the next values; noted with them: in vivo.
With `CCCCCCCCCCCCCCCC(=O)O` [C16:0, palmitic acid], the “Change of total serum concentration versus Month 0” value is reported as “either did not change or decreased”.

In the case of `CCCCCCCCCCCCCCCCCCCCCCCCCC(=O)O` [C26:0], the “Change of total serum concentration versus Month 0” value is recorded as “increased”.

Tested on in the next series: not listed separately
Nature of the series: Serum total fatty acids (% of total fatty acids), MMP dolphins versus wild Sarasota Bay dolphins. The format is in vivo, bottlenose dolphin (Tursiops truncatus). The settings on record: MMP Dolphins (n = 30). An excerpt:
Dolphins at the Navy Marine Mammal Program (MMP) are a well-studied dolphin population with regard to chronic diseases and diseases of aging, and this population is more susceptible to anemia (lower packed cell volume and lower hemoglobin) compared to wild dolphins living in Sarasota Bay, Fla. (Table 1). MMP dolphins also have lower total serum odd chain saturated fatty acids and lower very long even chain saturated fatty acids compared to Sarasota Bay dolphins (Table 1, See also Venn-Watson et al. (2016) Increased dietary intake of saturated fatty acid heptadecanoic acid (C17:0) associated with decreasing ferritin and alleviated metabolic syndrome in dolphins. […] Proposed risk factors for anemia in MMP dolphins can include advanced age, chronic disease, and diet (see Venn-Watson S, Smith C R, Gomez F, Jensen E D (2011) Physiology of aging among healthy, older bottlenose dolphins (Tursiops truncatus): comparisons with aging humans. J Comp Phys B 181:667-680). It can be hypothesized that differences in dietary fish (and differences in certain fatty acids associated with particular types of fish) can be responsible for the risk of anemia.
Regarding `CCCCCCCCCCCCCCCCC(=O)O` [C17:0, heptadecanoic acid], the “Serum fatty acid (%)” value is given as 0.3 ± 0.1%.

In the case of `CCCCCCCCCCCCCCCCCCCCCC(=O)O` [C22:0, behenic acid], the “Serum fatty acid (%)” value turned out to be 0.2 ± 0.04%.

For the compound `CCCCCCCCCCCCCCC(=O)O` [C15:0, pentadecanoic acid], the “Serum fatty acid (%)” value is listed as 0.3 ± 0.1%.

As for `CCCCCCCCCCCCCCCCCCCC(=O)O` [C20:0], the “Serum fatty acid (%)” value was 0.9 ± 0.2%.

As for `CCCCCCCCCCCCCCCCCCCCCCCC(=O)O` [C24:0], the “Serum fatty acid (%)” value amounted to 0.1 ± 0.0%.

The series is the same for the next values; noted with them: wild Sarasota Bay Dolphins (n = 19).
As for `CCCCCCCCCCCCCCCCC(=O)O` [C17:0, heptadecanoic acid], the “Serum fatty acid (%)” value is given as 1.3 ± 0.4%.

Consider `CCCCCCCCCCCCCCCCCCCCCC(=O)O` [C22:0, behenic acid], for which the “Serum fatty acid (%)” value worked out at 0.7 ± 0.2%.

For the compound `CCCCCCCCCCCCCCC(=O)O` [C15:0, pentadecanoic acid], the “Serum fatty acid (%)” value stood at 1.1 ± 0.4%.

Consider `CCCCCCCCCCCCCCCCCCCC(=O)O` [C20:0], for which the “Serum fatty acid (%)” value was determined as 1.5 ± 0.3%.

Consider `CCCCCCCCCCCCCCCCCCCCCCCC(=O)O` [C24:0], for which the “Serum fatty acid (%)” value is recorded as 0.5 ± 0.1%.

The subject of the next series is red blood cell indices. Nature of the series: Stepwise and simple linear regression: serum fatty acids as predictors of red blood cell indices. The format is in vivo, bottlenose dolphin (Tursiops truncatus). The settings on record: Group A dolphins on the modified diet. Here is the method:
Fatty acids that were independent predictors of red blood cell indices were then tested for linear associations with red blood cell indices using simple linear regressions.
Regarding `CCCCCCCCCCCCCCCCC(=O)O` [C17:0, heptadecanoic acid], the “Increased serum concentration as independent, linear predictor of red blood cell indices” value was “independently predicted higher hematocrit, higher packed cell volume, higher hemoglobin, and higher red blood cell counts”.

Turning to `CCCCCCCCCCCCCCC(=O)O[C@H]1CC[C@@]2(C)C(=CC[C@H]3[C@@H]4CC[C@H]([C@H](C)CCCC(C)C)[C@@]4(C)CC[C@@H]32)C1` [C15:0 CE], the “Increased serum concentration as independent, linear predictor of red blood cell indices” value is “independently predicted improved red blood cell indices”.

With `CCCCCCCCCCCCCCC(=O)O` [C15:0, pentadecanoic acid], the “Increased serum concentration as independent, linear predictor of red blood cell indices” value was “independently predicted higher hematocrit, higher packed cell volume, higher hemoglobin, and higher red blood cell counts”.

Tested on in a further series: not listed separately
As to the kind of experiment: Serum fatty acid form concentrations (complex lipidomics) in dolphins fed modified diet. The format is in vivo, bottlenose dolphin (Tursiops truncatus). To be noted: case dolphins fed modified diet (n = 20), Month 0 (baseline). Here is the method: as §1
Take `CCCCCCCCCCCCCCC(=O)O[C@H]1CC[C@@]2(C)C(=CC[C@H]3[C@@H]4CC[C@H]([C@H](C)CCCC(C)C)[C@@]4(C)CC[C@@H]32)C1` [C15:0 CE]: the “Serum concentrations of fatty acid forms” value was found to be 22 ± 5 µM.

The same series, now with this note: case dolphins fed modified diet (n = 20), Month 1.
Consider `CCCCCCCCCCCCCCC(=O)O[C@H]1CC[C@@]2(C)C(=CC[C@H]3[C@@H]4CC[C@H]([C@H](C)CCCC(C)C)[C@@]4(C)CC[C@@H]32)C1` [C15:0 CE], for which the “Serum concentrations of fatty acid forms” value was 61 ± 19 µM.

Still in this series, the particulars now being: case dolphins fed modified diet (n = 20), Month 3.
Take `CCCCCCCCCCCCCCC(=O)O[C@H]1CC[C@@]2(C)C(=CC[C@H]3[C@@H]4CC[C@H]([C@H](C)CCCC(C)C)[C@@]4(C)CC[C@@H]32)C1` [C15:0 CE]: the “Serum concentrations of fatty acid forms” value was determined as 66 ± 17 µM.

The series is the same for the next values; noted with them: case dolphins fed modified diet (n = 20), Month 6.
For `CCCCCCCCCCCCCCC(=O)O[C@H]1CC[C@@]2(C)C(=CC[C@H]3[C@@H]4CC[C@H]([C@H](C)CCCC(C)C)[C@@]4(C)CC[C@@H]32)C1` [C15:0 CE], the “Serum concentrations of fatty acid forms” value was 64 ± 22 µM.
